Article PMC6009911, “Inhibition of human cytochromes P450 2A6 and 2A13 by flavonoids, acetylenic thiophenes and sesquiterpene lactones from Pluchea indica and Vernonia cinerea” (Journal of Enzyme Inhibition and Medicinal Chemistry, 2017)
Where two headings read alike, the source gives them in different places. Marks after values point to notes of the source that are not given here.

Legend:
CYP2A13 [1] = target: T1, CYP2A13 (Homo sapiens, UniProt Q16696); test: Effects of trapping agents and dialysis on inactivation of CYP2A13; assay type: biochemical; conditions: CYP2A13 inhibition reaction mixture, probe coumarin, compound 10 µM
T1 construct: made in house
T1 sequence (Q16696 1-494): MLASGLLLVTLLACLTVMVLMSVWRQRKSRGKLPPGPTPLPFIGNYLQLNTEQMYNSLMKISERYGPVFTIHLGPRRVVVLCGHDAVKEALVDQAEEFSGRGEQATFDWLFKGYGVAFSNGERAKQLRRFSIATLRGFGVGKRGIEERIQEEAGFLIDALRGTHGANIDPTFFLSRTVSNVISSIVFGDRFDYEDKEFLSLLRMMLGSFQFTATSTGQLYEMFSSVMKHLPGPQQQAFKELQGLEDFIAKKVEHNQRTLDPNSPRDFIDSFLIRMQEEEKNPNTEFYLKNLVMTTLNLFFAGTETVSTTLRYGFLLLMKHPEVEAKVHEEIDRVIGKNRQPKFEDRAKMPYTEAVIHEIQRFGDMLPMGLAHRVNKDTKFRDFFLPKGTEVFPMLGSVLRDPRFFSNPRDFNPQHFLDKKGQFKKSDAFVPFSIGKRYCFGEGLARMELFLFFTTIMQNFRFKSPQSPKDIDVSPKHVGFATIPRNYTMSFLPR
Method: (§1) MBI requires NADPH and time to generate reactive intermediate as inhibitor and ultimately inactivates the enzyme. MBI was evaluated by pre-incubation with each test inhibitor in the reaction at different time periods (0, 10, 20 and 30 min) in the presence of NADPH for time-dependent assay, as described. The apparent inactivation constants, KI and Kinact, were obtained from double reciprocal plots of kobs versus inhibitor concentrations by linear regression analysis on GraphPad Prism 5. Methoxsalen was used as a control mechanism-based inhibitor for time- and NADPH-dependent inhibition assays.
To explore whether inactivation of CYP2As by thiophenes 9–11 and of CYP2A13 by hirsutinolides 5-8 could be reversed, the removal of reversible inhibitory compounds by dialysis and addition of trapping agents (GSH, semicarbazide, catalase or potassium ferricyanide) in the inhibition reaction mixture were performed. […] Similarly, mechanism-based inactivation of both CYP2A6 and CYP2A13 by thiophenes 9–11 could not be reversed (Table 3).

CYP2A13 [2] = target: T1, CYP2A13; test: Inhibition of CYP2A13-mediated nicotine metabolism; assay type: biochemical; conditions: compound at IC50 value; nicotine 50 μM; 30 min; Supplemental Figure S2
Method: mixture with nicotine substrate (a final concentration of 50 μM) prior to initiation of each reaction with 50 μM NADPH at room temperature. Each reaction was terminated by addition of ice-cold acetronitrile at 30 min incubation and 50 pmol 7-hydroxycoumarin as internal standard was added. The reaction was centrifuged (12,000 rpm, 10 min, 4 °C) and 20 μl of each sample was analyzed on symmetry RP-C18 column (3.9×150 mm). Gradient condition was isocratic of 12% ACN: 2-propanol (7:3) in 10 mM potassium phosphate buffer (pH 7.4) at flow rate of 1 ml/min. The nicotine peak area in each reaction was compared with that of time zero. The enzyme activity was determined as percent substrate consumption over 30 min. The reactions were […]
(1 picture or pasted object on this page, not shown here)

CYP2A6 [3] = target: T2, CYP2A6 (Homo sapiens, UniProt P11509); conditions: ref Prasopthum et al., 2015, cited from earlier work
T2 sequence (P11509 1-494): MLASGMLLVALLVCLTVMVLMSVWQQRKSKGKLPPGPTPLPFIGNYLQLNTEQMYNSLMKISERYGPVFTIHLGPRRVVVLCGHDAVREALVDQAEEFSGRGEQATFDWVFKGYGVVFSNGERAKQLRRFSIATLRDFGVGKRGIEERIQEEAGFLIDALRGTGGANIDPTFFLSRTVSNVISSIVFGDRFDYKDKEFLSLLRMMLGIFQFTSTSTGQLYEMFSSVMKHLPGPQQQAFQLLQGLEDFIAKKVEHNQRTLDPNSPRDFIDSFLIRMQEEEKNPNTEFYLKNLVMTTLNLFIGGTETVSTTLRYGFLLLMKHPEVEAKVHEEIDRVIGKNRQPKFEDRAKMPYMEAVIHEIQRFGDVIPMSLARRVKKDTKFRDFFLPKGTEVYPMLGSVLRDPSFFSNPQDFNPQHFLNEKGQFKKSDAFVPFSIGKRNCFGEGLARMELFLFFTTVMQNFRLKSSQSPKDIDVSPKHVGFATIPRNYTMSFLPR

CYP2A6 [4] = target: T2, CYP2A6; parameters: made in house; conditions: ref Prasopthum et al., 2015, cited from earlier work
CYP2A13 [5] = target: T1, CYP2A13; test: Mechanism-based (time- and NADPH-dependent) inactivation of CYP2A13; assay type: biochemical; conditions: pre-incubation 0-30 min with NADPH
Method: as §1

CYP2A13 [6] = target: T1, CYP2A13; test: Inhibition of CYP2A13-mediated coumarin 7-hydroxylation, enzymatic reconstitution assay; assay type: biochemical
Method: Inhibitory effect of plant extracts, fractions, subfractions and constituents was determined by inhibition assay on CYP2A6- and CYP2A13-mediated coumarin 7-hydroxylation. The recombinant human CYP2A6, CYP2A13 and rat NADPH-dependent cytochrome P450 oxidoreductase (CYPOR) proteins were expressed, purified, according to the methods previously described. […] Rate of 7-hydroxycoumarin product formation was measured on spectrofluorometer (Shimadzu, Kyoto, Japan) at λex = 355 nm, λem = 460 nm. Inhibition effects were determined by incubation with extracts, fractions or purified compounds with coumarin substrate in the reaction mixture and calculated as per cent relative inhibition compared with vehicle control reaction[20] and IC50 values were calculated using GraphPad Prism 5 (GraphPad Software Inc., La Jolla, CA).
as §1

CYP2A6 [7] = target: T2, CYP2A6; parameters: made in house; method as in PMID 25857233; conditions: cited from earlier work

activity at 10 µM (CYP2A13 [1]; read-out: Per cent remaining activity, 70 μM K3Fe(CN)6): 25.9 ± 1.87% | activity at 10 µM (CYP2A13 [1]; read-out: Per cent remaining activity, 2 mM GSH): 33.6 ± 4.8% | activity at 10 µM (CYP2A13 [1]; read-out: Per cent remaining activity, 5 mM semicarbazide): 25 ± 3.81% | activity at 10 µM (CYP2A13 [1]; read-out: Per cent remaining activity, 2000 U catalase): 26.6 ± 3.86% | activity at 10 µM (CYP2A13 [1]; read-out: Per cent remaining activity, Dialysis (+) NADPH): 22.8 ± 1.13% | activity at 10 µM (CYP2A13 [1]; read-out: Per cent remaining activity, Dialysis (−) NADPH): 85.3 ± 4.98% | activity at 10 µM (CYP2A13 [1]; read-out: Per cent remaining activity, Pre-incubation): 28.4 ± 2.92% | inhibition of CYP2A13-mediated nicotine metabolism (CYP2A13 [2]): showed inhibition | kinact (CYP2A13 [5]): 0.001 s⁻¹ | KI (inactivation) (CYP2A13 [5]; read-out: CYP2A13 KI (inactivation constant)): 3.6 ± 1.05 µM | CYP2A13 Mode of inhibition (CYP2A13 [6]): Mixed type | IC50 (CYP2A13 [6]; 10-min pre-incubation in the presence of NADPH, read-out: IC50 CYP2A13 Pre-incubation): 7.66 ± 0.98 µM | IC50 (CYP2A13 [6]; coincubation, coumarin 2 µM, read-out: IC50 CYP2A13 Coincubation): 20.9 ± 1.46 µM | Ki (CYP2A13 [6]; coumarin 0–40 µM): 7.97 ± 0.78 µM
SMILES: C/C=C(\C)C(=O)OC1CC(C)C2(O)CCC(C)(/C=C3/OC(=O)C(COC(C)=O)=C31)O2 (stereo not drawn) [Hirsutinolide 6, 8α-tigloyloxyhirsutinolide-13-O-acetate]
KI (inactivation) (CYP2A6 [3]; read-out: CYP2A6 KI (inactivation constant)): 15.4 ± 1.8 µM | CYP2A6 Kinact (CYP2A6 [3]): 0.03 ± 0.01^b | IC50 (CYP2A6 [4]; 10-min pre-incubation in the presence of NADPH, read-out: IC50 CYP2A6 Pre-incubation): 20.8 ± 1.1 µM | IC50 (CYP2A6 [4]; coincubation, coumarin 2 µM, read-out: IC50 CYP2A6 Coincubation): 37.8 ± 3.5 µM | Ki (CYP2A6 [4]; coumarin 0–40 µM): 30.6 ± 1.5 µM | CYP2A6 Mode of inhibition (CYP2A6 [4]): Mixed type^b | inhibition of CYP2A6-mediated nicotine metabolism (CYP2A6 [7]): showed inhibition
